Where a name gives a salt, the structure may show the parent alone. Blank lines part the entries; values can stand above or below the compound they belong to.
How the values were obtained:
[1] = PXRD studies of capped and uncapped samples maintained in a 40° C./75% RH stability chamber; assay type: physicochemical
Description: Zuclomiphene citrate Form APO-1 can be characterized by a PXRD diffractogram comprising, among other peaks, characteristic peaks, expressed in degrees 2θ (±0.2°), at 8.8°, 9.6° and 11.7°. Preferably, the PXRD diffractogram further comprises at least three peaks, expressed in degrees 2θ (±0.2°), selected from the group consisting of 10.9°, 12.4°, 14.7°, 14.9°, 17.3°, 17.8°, 18.6°, 19.9°, 20.5°, 23.6° and 25.4°. More preferably, the PXRD diffractogram further comprises peaks, expressed in degrees 2θ (±) 0.2°, at 10.9°, 12.4°, 14.7°, 14.9°, 17.3°, 17.8°, 18.6°, 19.9°, 20.5°, 23.6° and 25.4°.
Zuclomiphene citrate Form APO-III can be characterized by a PXRD diffractogram comprising, among other peaks, characteristic peaks, expressed in degrees 2θ (±0.2°), at 8.7°, 9.8° and 10.5°. Preferably, the PXRD diffractogram further comprises at least three peaks, expressed in degrees 2θ (±0.2°), selected from the group consisting of 11.6°, 12.3°, 15.3°, 16.9°, 18.0°, 18.6°, 19.4°, 20.4°, 21.0° and 24.5°. More preferably, the PXRD diffractogram further comprises peaks, expressed in degrees 2θ (±0.2°), at 11.6°, 12.3°, 15.3°, 16.9°, 18.0°, 18.6°, 19.4°, 20.4°, 21.0° and 24.5°. […]
PXRD diffractograms were recorded on a Bruker D8 Discover powder X-ray diffractometer (Bruker-AXS, Karlsruhe, Germany). […] Raw data were evaluated using the program EVA (Bruker-AXS, Karlsruhe, Germany).

[2] = Thermodynamic stability of the crystalline form; assay type: physicochemical
Text: Zuclomiphene citrate Form APO-IV can be prepared by gradual addition of a solution of citric acid in a suitable solvent, preferably an alcohol or ketone solvent such as methanol or acetone, to a solution of zuclomiphene free base in a suitable solvent, preferably an alcohol solvent such as 2-methyl-1-propanol or 1-butanol, more preferably an ester solvent, such as ethyl acetate. Preferably, the solution of zuclomiphene free base is heated to an elevated temperature prior to addition of the citric acid solution, preferably in the range of about 50° C. to about 70° C. Following addition, the resulting mixture is preferably charged with Form APO-IV seeds and maintained at elevated temperature for a time (′aged), preferably in the range of about 16 hours to about 4 days, more preferably in the range of about 16 hours to about 48 hours. Following aging, the resulting mixture is preferably cooled to a temperature in the range of about 0° C. to about 35° C., most preferably room temperature, prior to isolation of the solid by filtration and drying, if necessary. Drying can be conducted in vacuo, preferably at a temperature in the range of about 50° C. to about 70° C., preferably for about 18 hours to about 3 days.

[3] = system: hot flashes in men with prostate cancer on androgen deprivation therapy; conditions: 50 mg zuclomiphene citrate, interim Phase 2 clinical trial results; cited from earlier work

SMILES: CCN(CC)CCOc1ccc(/C(=C(\Cl)c2ccccc2)c2ccccc2)cc1 [Form APO-I, zuclomiphene citrate]
change in the crystalline form (PXRD) ([1]; at least 4 weeks): no change in the crystalline form occurred

thermodynamic stability [2]: thermodynamically stable
SMILES: CCN(CC)CCOc1ccc(/C(=C(\Cl)c2ccccc2)c2ccccc2)cc1 [Form APO-IV, zuclomiphene citrate]

SMILES: CCN(CC)CCOc1ccc(/C(=C(\Cl)c2ccccc2)c2ccccc2)cc1 [zuclomiphene citrate, 2-[4-[(Z)-2-chloro-1,2-diphenylethenyl]phenoxy]-N,N-diethylethanamine]
decrease in moderate to severe hot flashes from baseline [3]: statistically significant decrease

SMILES: CCN(CC)CCOc1ccc(/C(=C(\Cl)c2ccccc2)c2ccccc2)cc1 [Form APO-III, zuclomiphene citrate]
change in the crystalline form (PXRD) ([1]; at least 8 weeks): no change in the crystalline form occurred
